In patent US8273769B2, “Phenoxy acetic acid derivatives” (Merck Serono SA, priority 2009, dated 2012):

Tests used:
[1] = system: eosinophils in human whole blood; test: PGD2-induced eosinophil cell shape assay in human whole blood; type: cell-based; details: 10 nM PGD2 final, flow cytometry
Protocol: The Compounds of Formula (I) were diluted in dimethylsulphoxide so that the total volume of dimethylsulfoxide was kept constant at 2% dimethylsulphoxide (Me2SO). Serial dilutions of 200 μM to 0.09 μM were prepared. Samples of 90 μl of human blood from healthy volunteers (Centre de Transfusion Sanguine de Genève) were pre-incubated in polypropylene Falcon tubes (BD 352063) for 20 minutes in a water bath at 37° C. with 10 μl of diluted compounds. For CRTH2 activation, 100 μl PGD2 (Cayman 12010) at 20 nM was added (10 nM final) to each tube and cells were maintained at 37° C. For negative control cells were treated with PBS. After 10 minutes, cell activation was stopped with 120 μl Formaldehyde 10% (4% final, Fluka 41650) and cells were rested for 10 minutes at room temperature. Fixed cells were transferred into polypropylene tubes and then treated for 1 hour in a water bath at 37° C. with 2 ml of Triton-Surfact-Amps X-100 (Pierce 28314) at 0.166% (0.13% Triton final). After several washes with PBS (red cells lysed progressively during washes, two washes are necessary), cells were analyzed by flow cytometry on a FACSCalibur. In one embodiment, the compounds of Formula (I) of the present invention are capable of blocking the cell shape change of eosinophils induced by PGD2 in Whole Blood.

[2] = target: T1, CRTH2 (Homo sapiens, UniProt Q9Y5Y4); test: Radioligand binding Scintillation Proximity Assay ([3H]PGD2, hCRTH2-CHO cell membranes); parameters: host or cells: CHO cells; details: 1.5 nM [3H]PGD2, hCRTH2-CHO cell membranes, SPA
T1 sequence (Q9Y5Y4 1-395): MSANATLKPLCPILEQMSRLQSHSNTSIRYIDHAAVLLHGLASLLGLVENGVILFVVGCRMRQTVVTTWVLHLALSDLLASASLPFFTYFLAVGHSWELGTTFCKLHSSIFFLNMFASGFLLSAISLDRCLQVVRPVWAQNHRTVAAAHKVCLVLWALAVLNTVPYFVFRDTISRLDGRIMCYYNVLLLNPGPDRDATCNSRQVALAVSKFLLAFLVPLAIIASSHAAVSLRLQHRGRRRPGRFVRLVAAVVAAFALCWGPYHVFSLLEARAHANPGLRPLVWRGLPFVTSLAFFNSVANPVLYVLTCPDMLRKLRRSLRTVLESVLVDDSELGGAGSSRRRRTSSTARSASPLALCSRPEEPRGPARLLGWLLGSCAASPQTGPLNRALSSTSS
In short: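 SPA competition binding at room temperature, 90 min with agitation: 1.5 nM [3H]PGD2, 10-50 μg/ml hCRTH2-CHO membrane protein, WGA SPA beads, HEPES pH 7.4 with 10 mM MnCl2, 1% DMSO. Non-specific binding defined with 10 μM PGD2; scintillation counting.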

[3] = target: T1, CRTH2; test: [35S]GTPγS binding assay (CHO-CRTH2 cell membranes); type: biochemical; parameters: expressed in transfected cells; host or cells: CHO-CRTH2 cells; details: antagonist mode, fixed concentration of PGD2 (EC80)
Protocol: Adherent CHO cells expressing hCRTH2 (Euroscreen, Belgium) were cultured in 225 cm^2 cell culture flasks (Corning, USA) in 30 ml of medium. After two rinses of phosphate buffered saline (PBS), cells were harvested in 10 ml of PBS containing 1 mM EDTA, centrifuged at 500×g for 5 min at 4° C. and frozen at −80° C. The pellet was re-suspended in 50 mM Tris-HCl, pH 7.4, 2 mM EDTA, 250 mM Sucrose, containing protease inhibitor cocktail tablets, (Complete EDTA-free, Roche, Germany) and incubated 30 min at 4° C. Cells were disrupted by nitrogen cavitation (Parr Instruments, USA) at 4° C. (800 p.s.i. for 30 min), and centrifuged at 500×g for 10 min at 4° C. Pellet containing nuclei and cellular debris was discarded and supernatant was centrifuged 60 min at 4° C. at 45000×g. Membrane pellet was re-suspended in storage buffer (10 mM HEPES/KOH pH 7.4, 1 mM EDTA, 250 mM sucrose, protease inhibitor cocktail tablets) using Dounce homogenization and frozen in liquid nitrogen, and stored at −80° C.
The [^35S]GTPγS assay measures the increase in guanine nucleotide exchange at G-proteins in cell membranes, resulting from agonist (PGD2) binding to CRTH2. This process can be monitored in vitro by incubating cell membranes containing G-proteins and CRTH2 with GDP and [^35S]GTPγS, a radiolabeled, hydrolysis-resistant analogue of GTP (see, Harrison et al., Life Sciences 74, 489-508, 2003). The addition of a Compounds of Formula (I) results in binding to CRTH2 and thus in an inhibition of agonist binding, which can be monitored as inhibition of the stimulation of GTP/GDP exchange.
Briefly, Compounds of Formula (I) are incubated in 96-well scintillating white polystyrene plates (Perkin Elmer, USA) in a final volume of 200 μl containing 20 mM HEPES/KOH pH 7.4, 3 mM MgCl2, 10 μg/ml Saponin, 5 μM GDP, 75 mM NaCl and 2% of dimethylsulphoxide (DMSO). Reaction is triggered by the addition of 5-10 μg of CHO-CRTH2 cell membranes and 0.15 nM [^35S]GTPγS. After 60 min incubation at 30° C., reaction is stopped by centrifugation at 700×g, at 4° C. for 10 minutes and supernatant is removed. The radioactivity coming from the [^35S]GTPγS bound on centrifuged cell membranes is recorded using a 1450 Micro-beta scintillation counter. For IC50 determination, increasing concentrations of compounds are incubated in presence of a fixed concentration of PGD2 (EC80). For EC50 measurements, compounds are incubated without addition of PGD2. Basal [^35S]GTPγS activity is determined without addition of any ligands or compounds. 100% [^35S]GTPγS activity is measured by the addition of 1 μM of PGD2.

[4] = target: T1, CRTH2; test: Cellular Dielectric Spectroscopy (CHO-CRTH2 cells); type: cell-based; parameters: expressed in transfected cells; host or cells: CHO-CRTH2 cells; details: for EC50 / Emax: partial agonists, agonist activity without PGD2; for IC50: antagonist mode, fixed concentration of PGD2 (EC80)
Protocol: Cellular Dielectric Spectroscopy (CDS) is a label-free technology based on the measurement of complex impedance changes (delta Z or dZ). Impedance (Z) is related to the ratio of voltage to current as described by Ohm's law (Z=V/I). In order to measure the changes in impedance that occur in response to receptor stimulation, mammalian cells are seeded onto a custom 96-well microliter plate that contains electrodes at the bottom of each well. Key contributors to the impedance measurements are changes in cell-substrate adherence, changes in cell shape and volume, and changes in cell-cell interactions. These factors individually or collectively affect the flow of current, influencing the magnitude and characteristics of the signal measured. G-protein coupled receptors ligand-induced activity can be measured using this technology and specific G protein coupling can be identified. Activities of reference agonist and antagonist molecules of CRTH2 have been measured using this assay and similar results were obtained compared to different functional assays.
CHO-CRTH2 cells are cultured in HAM's F12 (Lonza, Switzerland) supplemented with 10% foetal calf serum (PAA, Australia) and 400 μg/ml Geneticin. 100000 cells/well are seeded in standard 96W Microplates (MDS Analytical Technologies) and incubated at 37° C. in 5% CO2 for 24 hours. Cells are washed twice with 135 μl of cell key buffer (Hank's Balanced Salt Solution 1× (HBSS) (Invitrogen) supplemented with 10 mM HEPES pH 7.4 in presence of 1% DMSO). For EC50 determination. 15 μl of increasing concentration of Compounds of Formula (I) diluted in cell key buffer are added to the cells and agonist activity is then recorded for 25 minutes. […] Results are expressed as the amplitude between the highest and the lowest signal produced (max-min). Basal and maximum activities are measured, respectively in absence or presence of PGD2 (EC80).

[5] = system: OVA-induced lung eosinophilia in mice; test: OVA-induced lung eosinophilia in mice; type: in vivo, BALB/c mice; details: BAL fluid, dose 1 mg/kg
Protocol: BALB/c mice (6-8 weeks old) were immunized with ovalbumin (10 μg i.p) on day 0 and 7. In order to elicit a local inflammatory response in the lung, mice were challenged between day's 15-17 with a nebulised solution of ovalbumin (10 μg/ml; De Vilibiss Ultraneb 2000, once daily for 30 min during the 3 days). On each separate day between 15 and 17 each animal received via oral gavage the test compound, at t−1 h and t+7 h with respect to OVA exposure at t=0 h. Eight hours after the final OVA challenge, bronchoalveolar lavage (BAL) was then carried out. Total cell numbers in the BAL fluid samples were measured using a haemocytometer. Cytospin smears of the BAL fluid samples were prepared by centrifugation at 1200 rpm for 2 min at room temperature and stained using a DiffQuik stain system (Dade Behring) for differential cell counts. […]

IC50 [1] [nM]	IC50 [2] [nM]	IC50 [3] [nM]	Compound	other results
77	7	–	Cc1ccc(S(=O)(=O)N(C)C)cc1C#Cc1cc(Cl)ccc1OCC(=O)O [Example 83, [4-chloro-2-({5-[(dimethylamino)sulfonyl]-2-methylphenyl}ethynyl)phenoxy]acetic acid]	–
–	2	–	CC(C)CS(=O)(=O)c1ccc(F)c(C#Cc2cc(Cl)ccc2OCC(=O)O)c1 [Example 105, (4-chloro-2-{[2-fluoro-5-(isobutylsulfonyl)phenyl]ethynyl}phenoxy)acetic acid]	melting point: 141 to 143 °C
77	5	–	COCCN(C)S(=O)(=O)c1ccc(C)c(C#Cc2cc(Cl)ccc2OCC(=O)O)c1 [Example 109, {4-chloro-2-[(5-{[(2-methoxyethyl)(methyl)amino]sulfonyl}-2-methylphenyl)ethynyl]phenoxy}acetic acid]	–
95	14	34	CS(=O)(=O)c1ccc(F)c(C#Cc2cc(C#N)ccc2OCC(=O)O)c1 [Example 58, (4-cyano-2-{[2-fluoro-5-(methylsulfonyl)phenyl]ethynyl}phenoxy)acetic acid]	EC50 [4]: 6 nM; Emax [4]: 32%
100	3	–	CCc1ccc(S(C)(=O)=O)cc1C#Cc1cc(Cl)ccc1OCC(=O)O [Example 100, (4-chloro-2-{[2-ethyl-5-(methylsulfonyl)phenyl]ethynyl}phenoxy)acetic acid]	IC50 [4]: 23 nM
123	9	–	Cc1ccc(S(=O)(=O)CC(C)C)cc1C#Cc1cc(C#N)ccc1OCC(=O)O [Example 65, (4-cyano-2-{[5-(isobutylsulfonyl)-2-methylphenyl]ethynyl}phenoxy)acetic acid]	–
95	9	15	CS(=O)(=O)c1ccc(F)c(C#Cc2cc(Cl)ccc2OCC(=O)O)c1 [Example 48, (4-chloro-2-{[2-fluoro-5-(methylsulfonyl)phenyl]ethynyl}phenoxy)acetic acid]	IC50 [4]: 9 nM; EC50 [4]: 1 nM; Emax [4]: 12%
1190	11	–	CCCc1ccc(S(C)(=O)=O)cc1C#Cc1cc(Cl)ccc1OCC(=O)O [Example 49, (4-chloro-2-{[5-(methylsulfonyl)-2-propylphenyl]ethynyl}phenoxy)acetic acid]	–
88	5	–	COCCNS(=O)(=O)c1ccc(C)c(C#Cc2cc(Cl)ccc2OCC(=O)O)c1 [Example 117, {4-chloro-2-[(5-{[(2-methoxyethyl)amino]sulfonyl}-2-methylphenyl)ethynyl]phenoxy}acetic acid]	–
–	–	–	C[C@@H]1C[C@H]2[C@@H]3CCC4=CC(=O)C=C[C@]4(C)[C@@]3(F)[C@@H](O)C[C@]2(C)[C@@]1(O)C(=O)CO [Dexamethasone]	% inhibition eosinophils (mean ± s.e.m.) [5]: 90 ± 10%; % inhibition total cells (mean ± s.e.m.) [5]: 88 ± 11%
–	30	49	CCCc1ccc(S(C)(=O)=O)cc1C#Cc1cc(C#N)ccc1OCC(=O)O [Example 56, (4-cyano-2-{[5-(methylsulfonyl)-2-propylphenyl]ethynyl}phenoxy)acetic acid]	IC50 [4]: 53 nM
–	6	6	CS(=O)(=O)c1ccc(Cl)c(C#Cc2cc(Cl)ccc2OCC(=O)O)c1 [Example 59, (4-chloro-2-{[2-chloro-5-(methylsulfonyl)phenyl]ethynyl}phenoxy)acetic acid]	IC50 [4]: 14 nM
679	28	140	O=C(O)COc1ccc(Cl)cc1C#Cc1ccc(CO)cc1F [Example 26, (4-chloro-2-{[2-fluoro-4-(hydroxymethyl)phenyl]ethynyl}phenoxy)acetic acid]	–
64	9	–	Cc1ccc(S(C)(=O)=O)cc1C#Cc1cc(Cl)ccc1OCC(=O)O [Example 33, (4-chloro-2-{[2-methyl-5-(methylsulfonyl)phenyl]ethynyl}phenoxy)acetic acid]	–
